Laboratory results from patent publication US11091478B2 (Fochon Pharmaceuticals, Ltd., priority 2017, dated 2021).

What follows are compounds tested on DOHH2 cells (assay: Cell proliferation assay (MTS), DOHH2 cells, 120 h). Details: Homo sapiens, DOHH-2, 120 h.
Assay type: cell-based
Excerpt: Cell Proliferation Assays
MTS testing kit was purchased from Promega. The RPMI-1640, Fetal bovine serum and Penicillin-Streptomycin were purchased from Gibco. Dimethyl sulfoxide (DMSO) was purchased from Sigma.
To investigate whether a compound is able to inhibit the activity of BCL-2 in cells, a mechanism-based assay using DOHH2 (DSMZ No.® ACC 47) and RS4;11 (ATCC® CRL-1873™) cell was developed. In this assay, inhibition of Bcl-2 was detected by the inhibition of DOHH2 cells proliferation. DOHH2 cells were cultured in culture flasks to 40-80% confluence in RPMI-1640 plus 10% fetal bovine serum. Cells were collected and plated onto 96-well plates at desired cell density (5000 cells/well). Plates were incubated overnight at 37° C., with 5% CO2 to adhere. Compounds were added to the plates, and the final compound concentrations were 10000, 3333, 1111, […], 124, 41, 14, 4.6 and 1.5 nM. Plates plated with DOHH2 or RS4;11 cells were placed at 37° C., with 5% CO2 for 120 h (DOHH2) or 72 h (RS4;11) respectively. 20 μl MTS/100 μl medium mixture solution were added to each well and incubate the plates for exactly 2 hours. The reaction was stopped by adding 25 μl 10% SDS per well. Measure absorbance at 490 nm and 650 nm (reference wavelength). IC50 was calculated using GraphPad Prism 5.0.
Select compounds prepared as described above were assayed according to the biological procedures described herein.

Question: For CC1(C)CCC(CN2CCN(c3ccc(C(=O)NS(=O)(=O)c4cc5c(c([N+](=O)[O-])c4)N[C@@H](CCOC(=O)N4CCOCC4)CO5)c(Oc4cnc5[nH]ccc5c4)c3)CC2)=C(c2ccc(Cl)cc2)C1 [Example 2-135, (S)-2-(7-(N-(2-((1H-pyrrolo[2,3-b]pyridin-5-yl)oxy)-4-(4-((4′-chloro-5,5-dimethyl-3,4,5,6-tetrahydro-[1,1′-biphenyl]-2-yl)methyl)piperazin-1-yl)benzoyl)sulfamoyl)-5-nitro-3,4-dihydro-2H-benzo[b][1,4]oxazin-3-yl) ethyl morpholine-4-carboxylate], which IC50 is on record?
Answer: 0.186 µM

Question: For CC1(C)CCC(CN2CCN(c3ccc(C(=O)NS(=O)(=O)c4cc5c(c([N+](=O)[O-])c4)N[C@H](CNS(C)(=O)=O)CO5)c(Oc4cnc5[nH]ccc5c4)c3)CC2)=C(c2ccc(Cl)cc2)C1 [Example 2-136, (R)-2-((1H-pyrrolo[2,3-b]pyridin-5-yl)oxy)-4-(4-((4′-chloro-5,5-dimethyl-3.4.5.6-tetra-hydro-[1,1′-biphenyl]-2-yl)methyl)piperazin-1-yl)-N-((3-(methylsulfonamidomethyl)-5-nitro-3,4-dihydro-2H-benzo[b][1,4]oxa-zin-7-yl)sulfonyl)benzamide], which IC50 is on record?
Answer: 0.378 µM

Question: For CCS(=O)(=O)NC[C@@H]1COc2cc(S(=O)(=O)NC(=O)c3ccc(N4CCN(CC5=C(c6ccc(Cl)cc6)CC(C)(C)CC5)CC4)cc3Oc3cnc4[nH]ccc4c3)cc([N+](=O)[O-])c2N1 [Example 2-137, (R)-2-((1H-pyrrolo[2,3-b]pyridin-5-yl)oxy)-4-(4-((4′-chloro-5,5-dimethyl-3,4,5,6-tetra-hydro-[1,1′-biphenyl]-2-yl)methyl)piperazin-1-yl)-N-((3-(ethylsulfonamidomethyl)-5-nitro-3,4-dihydro-2H-benzo[b][1,4]oxazin-7-yl)sulfonyl)benzamide], which IC50 is on record?
Answer: 0.139 µM

Question: For CC1(C)CCC(CN2CCN(c3ccc(C(=O)NS(=O)(=O)c4cc5c(c([N+](=O)[O-])c4)N[C@H](CN4CCOC4=O)CO5)c(Oc4cnc5[nH]ccc5c4)c3)CC2)=C(c2ccc(Cl)cc2)C1 [Example 2-146, (R)-2-((1H-pyrrolo[2,3-b]pyridin-5-yl)oxy)-4-(4-((4′-chloro-5,5-dimethyl-3,4,5,6-tetra-hydro-[1,1′-biphenyl]-2-yl)methyl)piperazin-1-yl)-N-((5-nitro-3-((2-oxooxazolidin-3-yl)methyl)-3,4-dihydro-2H-benzo[b][1,4]oxazin-7-yl)sulfonyl)benzamide], which IC50 is on record?
Answer: 0.16 µM

Question: How did the IC50 turn out when CC1(C)CCC(CN2CCN(c3ccc(C(=O)NS(=O)(=O)c4cc5c(c([N+](=O)[O-])c4)N[C@H](c4ccccc4)CO5)c(Oc4cnc5[nH]ccc5c4)c3)CC2)=C(c2ccc(Cl)cc2)C1 [Example 2-165, (R)-2-((1H-pyrrolo[2,3-b]pyridin-5-yl)oxy)-4-(4-((4′-chloro-5,5-dimethyl-3,4,5,6-tetra-hydro-[1,1′-biphenyl]-2-yl)methyl)piperazin-1-yl)-N-((5-nitro-3-phenyl-3,4-dihydro-2H-benzo[b][1,4]oxazin-7-yl)sulfonyl)benza-mide] was run?
Answer: 0.077 µM

Question: Which IC50 does the source give for CC1(C)CCC(CN2CCN(c3ccc(C(=O)NS(=O)(=O)c4cc5c(c([N+](=O)[O-])c4)N[C@H](c4ccc(Cl)cc4)CO5)c(Oc4cnc5[nH]ccc5c4)c3)CC2)=C(c2ccc(Cl)cc2)C1 [Example 2-167, (R)-2-((1H-pyrrolo[2,3-b]pyridin-5-yl)oxy)-4-(4-((4′-chloro-5,5-dimethyl-3,4,5,6-tetra-hydro-[1,1′-biphenyl]-2-yl)methyl)piperazin-1-yl)-N-((3-(4-chlorophenyl)-5-nitro-3,4-dihydro-2H-benzo[b][1,4]oxazin-7-yl)sulfo-nyl)benzamide] here?
Answer: 0.029 µM

Question: With COc1ccc([C@@H]2COc3cc(S(=O)(=O)NC(=O)c4ccc(N5CCN(CC6=C(c7ccc(Cl)cc7)CC(C)(C)CC6)CC5)cc4Oc4cnc5[nH]ccc5c4)cc([N+](=O)[O-])c3N2)cc1 [Example 2-169, (R)-2-((1H-pyrrolo[2,3-b]pyridin-5-yl)oxy)-4-(4-((4′-chloro-5,5-dimethyl-3,4,5,6-tetra-hydro-[1,1′-biphenyl]-2-yl)methyl)piperazin-1-yl)-N-((3-(4-methoxyphenyl)-5-nitro-3,4-dihydro-2H-benzo[b][1,4]oxazin-7-yl)sulfonyl)benzamide] as the compound, how does the IC50 read?
Answer: 0.039 µM

Question: For CC1(C)CCC(CN2CCN(c3ccc(C(=O)NS(=O)(=O)c4cc5c(c([N+](=O)[O-])c4)N[C@H](c4ccc(C#N)cc4)CO5)c(Oc4cnc5[nH]ccc5c4)c3)CC2)=C(c2ccc(Cl)cc2)C1 [Example 2-170, (R)-2-((1H-pyrrolo[2,3-b]pyridin-5-yl)oxy)-4-(4-((4′-chloro-5,5-dimethyl-3,4,5,6-tetra-hydro-[1,1′-biphenyl]-2-yl)methyl)piperazin-1-yl)-N-((3-(4-cyanophenyl)-5-nitro-3,4-dihydro-2H-benzo[b][1,4]oxazin-7-yl)sulfo-nyl)benzamide], which IC50 is on record?
Answer: 0.464 µM

Question: How did the IC50 turn out when CC1(C)CCC(CN2CCN(c3ccc(C(=O)NS(=O)(=O)c4cc5c(c([N+](=O)[O-])c4)N[C@@H](c4ccccn4)CO5)c(Oc4cnc5[nH]ccc5c4)c3)CC2)=C(c2ccc(Cl)cc2)C1 [Example 2-171, (S)-2-((1H-pyrrolo[2,3-b]pyridin-5-yl)oxy)-4-(4-((4′-chloro-5,5-dimethyl-3,4,5,6-tetra-hydro-[1,1′biphenyl]-2-yl)methyl)piperazin-1-yl)-N-((5-nitro-3-(pyridin-2-yl)-3,4-di-hydro-2H-benzo[b][1,4]oxazin-7-yl)sulfonyl) benzamide] was run?
Answer: 0.302 µM

Question: CC1(C)CCC(CN2CCN(c3ccc(C(=O)NS(=O)(=O)c4cc5c(c([N+](=O)[O-])c4)N[C@@H](c4ccccc4)CO5)c(Oc4cnc5[nH]ccc5c4)c3)CC2)=C(c2ccc(Cl)cc2)C1 [Example 2-172, (S)-2-((1H-pyrrolo[2,3-b]pyridin-5-yl)oxy)-4-(4-((4′-chloro-5,5-dimethyl-3,4,5,6-tetra-hydro[1,1′-biphenyl]-2-yl)methyl)piperazin-1-yl)-N-((5-nitro-3-phenyl-3,4-dihydro-2H-benzo[b][1,4]oxazin-7-yl)sulfonyl)benza-mide] was tested. Which IC50 did it give?
Answer: 0.014 µM

Question: With CC1(C)CCC(CN2CCN(c3ccc(C(=O)NS(=O)(=O)c4cc5c(c([N+](=O)[O-])c4)N[C@@H](c4ccc(F)cc4)CO5)c(Oc4cnc5[nH]ccc5c4)c3)CC2)=C(c2ccc(Cl)cc2)C1 [Example 2-173, (S)-2-((1H-pyrrolo[2,3-b]pyridin-5-yl)oxy)-4-(4-((4′-chloro-5,5-dimethyl-3,4,5,6-tetra-hydro-[1,1′-biphenyl]-2-yl)methyl)piperazin-1-yl)-N-((3-(4-fluorophenyl)-5-nitro-3,4-dihydro-2H-benzo[b][1,4]oxazin-7-yl)sulfo-nyl)benzamide] as the compound, how does the IC50 read?
Answer: 0.024 µM

Question: Which IC50 does the source give for CC1(C)CCC(CN2CCN(c3ccc(C(=O)NS(=O)(=O)c4cc5c(c([N+](=O)[O-])c4)N[C@@H](c4ccc(Cl)cc4)CO5)c(Oc4cnc5[nH]ccc5c4)c3)CC2)=C(c2ccc(Cl)cc2)C1 [Example 2-174, (S)-2-((1H-pyrrolo[2,3-b]pyridin-5-yl)oxy)-4-(4-((4′-chloro-5,5-dimethyl-3,4,5,6-tetra-hydro-[1,1′-biphenyl]-2-yl)methyl)piperazin-1-yl)-N-((3-(4-chlorophenyl)-5-nitro-3,4-dihydro-2H-benzo[b][1,4]oxazin-7-yl)sulfo-nyl)benzamide] here?
Answer: 0.023 µM
